According to the supplement of paper PMC11451515:

Key:
Conditions in all cases: 48 h
NOMO1 [1] = test: cell viability relative to DMSO control; higher = less cytotoxic
Procedure, shortened: (§1)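 Cells were incubated for 48 h at 37°C before CellTiter-Glo One luminescence was read. The cells were NOMO1 or SEM (500 cells/well) or P12-Ichikawa (1000 cells/well) leukemia cells, adapted for at least four passages in each medium and seeded in 1536-well plates (5 μl). Dosing used library compounds in DMSO applied by pin over 11 threefold points, 47 μM to 0.79 nM. Viability is the per-plate percentage of DMSO wells, with cell-free wells as background.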

P12-Ichikawa = test: as above
Procedure, shortened: as §1

SEM cells = test: as above
Procedure, shortened: as §1

NOMO1 [2] = test: AUC of viability dose-response curve (% viability x log10 dose units); higher = less sensitive
Procedure, shortened: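 Area under the curve was integrated by trapezoidal rule from a log-logistic fit of normalised viability, with curves exceeding full viability scaled and quality-control failures removed. The fit had four parameters over log10 doses. Viability came from CellTiter-Glo One luminescence, normalised per plate to DMSO and cell-free wells, after leukemia cells adapted to each medium (500 or 1000 cells/well, 1536-well plates) were exposed to library compounds in DMSO for 48 h at 37°C. The 11 threefold doses ran from 47 μM to 0.79 nM.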

NC1=NC=C(C=C1)C2=CC=C3N=CC\4=C(N(C(=O)\C=C4)C5=CC(=CC=C5)C(F)(F)F)C3=C2
cell viability [%]
Conditions	NOMO1 [1]	P12-Ichikawa	SEM cells
HPLM + 10% dialyzed FBS, 0.000781 µM	80.5	81.4	67.9
HPLM + 10% dialyzed FBS, 0.00234 µM	76.8	82.7	65.8
HPLM + 10% dialyzed FBS, 0.00702 µM	62.6	76.7	53.2
HPLM + 10% dialyzed FBS, 0.0211 µM	57.6	66.7	46.5
HPLM + 10% dialyzed FBS, 0.0632 µM	41.2	58.6	37.5
HPLM + 10% dialyzed FBS, 0.19 µM	27.1	41.1	24.7
HPLM + 10% dialyzed FBS, 0.569 µM	24.1	42.6	28.6
HPLM + 10% dialyzed FBS, 1.71 µM	24.3	34.5	24.3
HPLM + 10% dialyzed FBS, 5.12 µM	21.4	11.6	13.3
HPLM + 10% dialyzed FBS, 15.4 µM	18.6	14	8.87
HPLM + 10% dialyzed FBS, 46.1 µM	16.5	15.7	14.3
RPMI 5 mM glucose + 10% FBS, 0.000781 µM	86.1	67.1	84.7
RPMI 5 mM glucose + 10% FBS, 0.00234 µM	83.9	64.9	81.8
RPMI 5 mM glucose + 10% FBS, 0.00702 µM	75.3	56.3	74.2
RPMI 5 mM glucose + 10% FBS, 0.0211 µM	74.4	51.8	57.2
RPMI 5 mM glucose + 10% FBS, 0.0632 µM	55	50.4	42.2
RPMI 5 mM glucose + 10% FBS, 0.19 µM	29.7	34	27.9
RPMI 5 mM glucose + 10% FBS, 0.569 µM	30.3	33.4	21.8
RPMI 5 mM glucose + 10% FBS, 1.71 µM	23.2	27.2	24.8
RPMI 5 mM glucose + 10% FBS, 5.12 µM	15.3	7.23	8.57
RPMI 5 mM glucose + 10% FBS, 15.4 µM	11.7	7.38	13.8
RPMI 5 mM glucose + 10% FBS, 46.1 µM	13.2	11.5	7.9
RPMI 5 mM glucose + 10% dialyzed FBS, 0.000781 µM	68.9	64.4	70.5
RPMI 5 mM glucose + 10% dialyzed FBS, 0.00234 µM	72.8	74.4	66.7
RPMI 5 mM glucose + 10% dialyzed FBS, 0.00702 µM	74.1	59.6	46.2
RPMI 5 mM glucose + 10% dialyzed FBS, 0.0211 µM	61.4	52.7	44.4
RPMI 5 mM glucose + 10% dialyzed FBS, 0.0632 µM	46	50.3	34.8
RPMI 5 mM glucose + 10% dialyzed FBS, 0.19 µM	28.5	32.9	23.6
RPMI 5 mM glucose + 10% dialyzed FBS, 0.569 µM	29.5	30.4	21.6
RPMI 5 mM glucose + 10% dialyzed FBS, 1.71 µM	22.9	23.7	22.5
RPMI 5 mM glucose + 10% dialyzed FBS, 5.12 µM	17.2	7.6	5.98
RPMI 5 mM glucose + 10% dialyzed FBS, 15.4 µM	13.5	7.89	5.05
RPMI 5 mM glucose + 10% dialyzed FBS, 46.1 µM	17.1	12.4	8.96

NOMO1 [2]
Conditions	AUC of viability dose-response curve
HPLM + 10% dialyzed FBS	191
RPMI 5 mM glucose + 10% FBS	214
RPMI 5 mM glucose + 10% dialyzed FBS	194
